Residues, ends and D or L forms follow the SMILES beside them. No end group written: not given here. *: point of attachment. 5FAM = O=C1OC2(c3ccc(O)cc3Oc3cc(O)ccc32)c2ccc(C(=O)*)cc21; Cbz = O=C(OCc1ccccc1)*; CH2F = FC*

The target in one assay is T1, BCR-ABL protein (Homo sapiens, UniProt P00519+P11274).
T1 construct: examined for their activity to degrade BCR-ABL in K562 cells for 6 h; BCR (fusion partner, P11274, N-terminal part); endogenous in cells; host or cells: K562
The experiment in a line: Protein knockdown by western blot in K562 cells. In kind it is cell-based. As to conditions: 6 h, 1-300 nM. Here is the method: (§1) Cells were collected and lysed in a lysis buffer (0.5% Triton X-100, 0.01 M Tris-HCl (pH 7.5), 0.15 M NaCl, Complete Mini protease inhibitor cocktail (Roche Applied Science, Indianapolis, IL, USA) and PhosStop phosphatase inhibitor cocktail (Roche Applied Science)). Protein concentrations were measured by the BCA method (Thermo Fisher Scientific) and an equal amount of protein lysate was separated by SDS-PAGE, transferred to polyvinylidene difluoride membranes (Merck Millipore) and analyzed by western blot using an appropriate antibody. The immunoreactive proteins were visualized using Clarity Western ECL substrate (Bio-Rad, Hercules, CA, USA) and their light emission was quantified with a LAS-3000 lumino-image analyzer (Fuji, Tokyo, Japan).
Background: Immunoblotting shows a protein as a band on a membrane.

For another assay, the system named is KU812 cells. The experiment in a line: WST cell growth inhibition, KU812. The format is cell-based. The note with it: Homo sapiens, 48 h, WST assay, means ± SD (n = 3). The procedure: (§2) Human CML (K562 and KU812 cells), acute T-lymphoblast leukemia (MOLT-4 cell), and T cell leukemia (Jurkat cell) were cultured in Roswell Park Memorial Institute-1640 medium (Sigma-Aldrich, St. Louis, MO, USA) containing 10% fetal bovine serum (Thermo Fisher Scientific, Waltham, MA, USA) and 50 μg/ml kanamycin (Sigma-Aldrich). KU812 cells were obtained from Japanese Collection of Research Bioresources (JCRB, Osaka, Japan) Cell Bank (JCRB0104)[58].
(§3) Cell viability was determined using water-soluble tetrazolium WST-8 (4-[3-(2-methoxy-4-nitrophenyl)-2-(4-nitrophenyl)-2H-5-tetrazolio]-1,3-benzene disulfonate) for the spectrophotometric assay and conducted according to the manufacturer’s instructions (Dojindo, Tokyo, Japan). Cells were seeded at a concentration of 5 × 10^3 cells per well in a 96-well culture plate, and treated with the indicated compounds for 48 h. The WST-8 reagent was added, and the cells were incubated for 0.5 h at 37 °C in a humidified atmosphere of 5% CO2. The absorbance at 450 nm of the medium was measured using the EnVision Multilabel Plate Reader.

Assay [1] concerns caspase 3 activation and PARP cleavage. Nature of the assay: Caspase activation and PARP cleavage after drug removal in K562 cells. In kind it is cell-based, Human. Here is the method:
as §1, with “Japan). The following antibodies were used: anti-cAbl rabbit polyclonal antibody (pAb) (#2862), anti-XIAP rabbit pAb (#2042), anti-phospho-cAbl rabbit pAb (#3009), anti-STAT5 rabbit pAb (#9363), anti-phospho-STAT5 rabbit pAb (#9359), anti-CrkL mouse monoclonal antibody (mAb) (#3182) and anti-phospho-CrkL rabbit pAb (#3181), anti-PARP rabbit pAb (#9532), and anti-cleaved Caspase 3 rabbit pAb (#9664) (Cell Signaling Technology, Danvers, MA, USA); anti-β-tubulin (ab6046) rabbit pAb (Abcam, Cambridge, UK) and anti-GAPDH rabbit pAb (sc-25778 HRP) (Santa Cruz, Dallas, TX, USA); anti-cIAP1 goat pAb (AF8181) (R&D systems).” for “Japan).”
(§4) Cells were seeded at a concentration of 2 × 10^6 cells per 10-cm tissue culture dish and treated with the indicated compounds for the indicated times. Then, the cells were washed three times to remove the compounds, and incubated in drug-free medium for the indicated times.

The test system of assay [2] is phosphorylation of BCR-ABL, STAT5 and CrkL. The experiment in a line: Downstream kinase signaling (phosphorylation) by western blot in K562 cells. In kind it is cell-based, Human. Here is the method: as §1, with “Japan). The following antibodies were used: anti-cAbl rabbit polyclonal antibody (pAb) (#2862), anti-XIAP rabbit pAb (#2042), anti-phospho-cAbl rabbit pAb (#3009), anti-STAT5 rabbit pAb (#9363), anti-phospho-STAT5 rabbit pAb (#9359), anti-CrkL mouse monoclonal antibody (mAb) (#3182) and anti-phospho-CrkL rabbit pAb (#3181), anti-PARP rabbit pAb (#9532), and anti-cleaved Caspase 3 rabbit pAb (#9664) (Cell Signaling Technology, Danvers, MA, USA); anti-β-tubulin (ab6046) rabbit pAb (Abcam, Cambridge, UK) and anti-GAPDH rabbit pAb (sc-25778 HRP) (Santa Cruz, Dallas, TX, USA); anti-cIAP1 goat pAb (AF8181) (R&D systems).” for “Japan).”
as §4

Assay [3] deals with K562 cells. Nature of the assay: WST cell growth inhibition, K562. In kind it is cell-based, Human. As to conditions: 48 h. Here is the method: as §2, §3
The test system of assay [4] is K562 cells. The experiment in a line: Washout experiment, cell counting of K562 cells. As to conditions: 25 or 50 times IC50 for 12 h, washed, drug-free medium for 6 d. In kind it is cell-based, Human. The procedure:
as §4

The target in assay [5] is T2, recombinant His-tagged human cIAP2 (BIR3, Gln238-Ser349) (human, UniProt Q13489 238-349).
T2 construct: cIAP2, human, BIR3 domain, residues Gln238-Ser349; also called His-IAP proteins; source: E. coli, purified (Ni-NTA column, gel filtration chromatography)
T2 sequence (Q13489 238-349): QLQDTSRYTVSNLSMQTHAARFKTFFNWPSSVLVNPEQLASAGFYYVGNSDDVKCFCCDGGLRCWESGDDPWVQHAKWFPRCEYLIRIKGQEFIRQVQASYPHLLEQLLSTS
Nature of the assay: AlphaScreen or HTRF; TR-FRET competition assay: 0.6 nM His-IAP BIR3 held by biotinylated anti-His antibody and terbium-streptavidin, FITC-Smac probe (27 nM for XIAP, 12 nM for cIAP1, 19 nM for cIAP2), small-molecule test compounds as competitors; 50 mM HEPES pH 7.2-7.5, 10 mM MgCl2, 1 mM EGTA, 0.1 mM DTT, 0.01% Brij 35; room temperature. As to conditions: both partners purified. For orientation: Alpha assays give light when donor and acceptor beads are brought close together.

Assay [6] deals with T3, recombinant His-tagged human XIAP (BIR3, Asn252-Thr356) (human, UniProt P98170 252-356).
T3 construct: XIAP, human, BIR3 domain, residues Asn252-Thr356; also called His-IAP proteins; source: bought: R&D Systems (895-XB-050)
T3 sequence (P98170 252-356): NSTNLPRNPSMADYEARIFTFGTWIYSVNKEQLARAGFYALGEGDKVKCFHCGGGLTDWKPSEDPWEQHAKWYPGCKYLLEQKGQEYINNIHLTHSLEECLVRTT
Described as above. As to conditions: both partners purified.

The target of assay [7] is T4, recombinant His-tagged human cIAP1 (BIR3, Leu250-Gly350) (human, UniProt Q13490 250-350).
T4 construct: cIAP1, human, BIR3 domain, residues Leu250-Gly350; also called His-IAP proteins; source: E. coli, purified (Ni-NTA column, gel filtration chromatography)
T4 sequence (Q13490 250-350): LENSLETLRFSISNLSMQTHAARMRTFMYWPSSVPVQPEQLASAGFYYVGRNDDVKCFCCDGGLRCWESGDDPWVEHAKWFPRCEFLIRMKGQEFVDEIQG
Described as above. The note with it: both partners purified.

T1 sequence (P11274+P00519 fused): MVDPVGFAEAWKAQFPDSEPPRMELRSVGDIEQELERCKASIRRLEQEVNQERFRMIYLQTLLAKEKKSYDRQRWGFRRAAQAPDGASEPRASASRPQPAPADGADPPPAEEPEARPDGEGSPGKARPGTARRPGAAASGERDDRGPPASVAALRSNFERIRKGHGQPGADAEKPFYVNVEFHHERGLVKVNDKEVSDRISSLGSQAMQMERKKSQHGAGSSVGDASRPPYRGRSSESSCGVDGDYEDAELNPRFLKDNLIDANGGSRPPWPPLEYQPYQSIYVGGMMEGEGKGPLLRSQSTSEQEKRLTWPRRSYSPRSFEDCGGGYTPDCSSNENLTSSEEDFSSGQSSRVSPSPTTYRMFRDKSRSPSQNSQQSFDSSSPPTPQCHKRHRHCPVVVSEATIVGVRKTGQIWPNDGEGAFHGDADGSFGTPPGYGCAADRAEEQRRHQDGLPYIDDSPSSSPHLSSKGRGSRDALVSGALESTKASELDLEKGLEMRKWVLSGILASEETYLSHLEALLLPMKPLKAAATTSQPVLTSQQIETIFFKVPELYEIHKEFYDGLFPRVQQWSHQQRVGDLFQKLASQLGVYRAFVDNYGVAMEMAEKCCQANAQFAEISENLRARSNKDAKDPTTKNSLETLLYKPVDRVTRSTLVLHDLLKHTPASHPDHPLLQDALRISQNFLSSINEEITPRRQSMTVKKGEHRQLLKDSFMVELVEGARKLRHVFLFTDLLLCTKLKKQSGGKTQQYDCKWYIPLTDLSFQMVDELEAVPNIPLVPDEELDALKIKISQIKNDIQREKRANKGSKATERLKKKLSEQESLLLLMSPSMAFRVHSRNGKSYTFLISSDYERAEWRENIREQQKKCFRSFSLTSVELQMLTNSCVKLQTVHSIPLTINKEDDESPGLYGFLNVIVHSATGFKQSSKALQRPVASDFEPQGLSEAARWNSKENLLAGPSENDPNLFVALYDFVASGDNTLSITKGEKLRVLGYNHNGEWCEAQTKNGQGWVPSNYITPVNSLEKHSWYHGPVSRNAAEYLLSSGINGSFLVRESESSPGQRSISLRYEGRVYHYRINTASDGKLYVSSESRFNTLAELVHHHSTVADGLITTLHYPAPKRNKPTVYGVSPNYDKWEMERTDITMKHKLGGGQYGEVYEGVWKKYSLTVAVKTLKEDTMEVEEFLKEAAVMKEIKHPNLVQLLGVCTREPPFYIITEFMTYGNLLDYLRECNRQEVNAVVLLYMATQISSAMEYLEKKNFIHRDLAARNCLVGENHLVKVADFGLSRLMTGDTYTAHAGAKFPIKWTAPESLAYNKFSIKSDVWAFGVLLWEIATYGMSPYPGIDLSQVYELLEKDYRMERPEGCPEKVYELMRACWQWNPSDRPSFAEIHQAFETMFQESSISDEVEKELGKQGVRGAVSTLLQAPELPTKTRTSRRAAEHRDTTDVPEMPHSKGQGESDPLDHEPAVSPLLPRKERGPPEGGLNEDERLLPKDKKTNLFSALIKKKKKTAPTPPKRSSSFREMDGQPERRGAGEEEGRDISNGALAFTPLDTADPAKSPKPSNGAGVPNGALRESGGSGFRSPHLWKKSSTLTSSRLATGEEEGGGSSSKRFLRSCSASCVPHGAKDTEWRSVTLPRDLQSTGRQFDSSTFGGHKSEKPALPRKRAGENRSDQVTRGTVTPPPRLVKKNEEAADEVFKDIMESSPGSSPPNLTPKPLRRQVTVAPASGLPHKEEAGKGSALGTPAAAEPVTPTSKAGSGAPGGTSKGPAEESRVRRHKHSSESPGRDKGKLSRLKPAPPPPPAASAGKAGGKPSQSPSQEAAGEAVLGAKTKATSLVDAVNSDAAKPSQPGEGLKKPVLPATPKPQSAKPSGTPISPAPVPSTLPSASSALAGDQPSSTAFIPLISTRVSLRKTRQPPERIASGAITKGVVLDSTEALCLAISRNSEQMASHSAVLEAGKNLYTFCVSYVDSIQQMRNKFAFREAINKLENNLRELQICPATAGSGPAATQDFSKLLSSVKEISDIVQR

As for `Cc1nc(Nc2ncc(C(=O)Nc3c(C)cccc3Cl)s2)cc(N2CCN(C(=O)COCCOCCOCC(=O)N[C@H](C(=O)N3C[C@H](O)C[C@H]3C(=O)NCc3ccc(-c4scnc4C)cc3)C(C)(C)C)CC2)n1` [DAS-VHL], the “knockdown activity against the BCR-ABL protein” value (shortened to “knockdown activity”) at BCR-ABL protein is recorded as “negligible activity”.
For the molecule `Cc1nc(Nc2ncc(C(=O)Nc3c(C)cccc3Cl)s2)cc(N2CCN(CCO)CC2)n1` [Dasatinib, dasatinib, reference compound], the IC50 with KU812 cells was found to be 0.0448 ± 0.0005 nM; with K562 cells [3] (Homo sapiens, WST assay, means ± SD (n = 3)) it was 0.0793 ± 0.0037 nM. Besides, the “caspase 3 activation and PARP cleavage” value in [1] (K562, 50 times IC50 for 12 h, drug removal for 24 h) was “not”. For the same molecule, the “phosphorylation of BCR-ABL, STAT5 and CrkL” value in assay [2] (K562, 50 times IC50 for 12 h (time 0)) is on record as “inhibited”; in [2] (K562 cells, 6 h) it was “suppressed”. For the same molecule, the “times more active than DAS-IAP to inhibit CML cell growth” value in the assay with K562 cells [3] turned out to be 100 times. Moreover, the “growth of K562 cells after drug removal” value in the assay with K562 cells [4] was “slightly delayed the growth”.
With `CCN1CCN(Cc2ccc(NC(=O)c3cccc(-c4ccc5nc(NC(=O)COCCOCCOCCOc6cccc(C(=O)c7csc([C@@H]8CCCN8C(=O)[C@@H](NC(=O)[C@H](C)NC)C8CCCCC8)n7)c6)sc5n4)c3)cc2C(F)(F)F)CC1` [HG-IAP], the “knockdown activity” value on BCR-ABL protein is recorded as “weak”.
For `CCN1CCN(Cc2ccc(NC(=O)c3cccc(-c4ccc5nc(NC(=O)COCCOCCOCC(=O)N[C@H](C(=O)N6C[C@H](O)C[C@H]6C(=O)NCc6ccc(-c7scnc7C)cc6)C(C)(C)C)sc5n4)c3)cc2C(F)(F)F)CC1` [HG-VHL], in the assay with K562 cells [3] (WST assay), the “suppression of K562 cell growth (comparison)” value was “more potent suppression of the growth of K562 cells than HG-IAP and HG-CRBN”. Also, at BCR-ABL protein, the “knockdown activity” value is given as “effective protein knockdown activity”.
Take `COC(=O)C[C@H](NC(=O)[C@H](C)NC(=O)[C@@H](NC(=O)OCc1ccccc1)C(C)C)C(=O)CF` [zVAD-FMK, reference compound] (Cbz-Val-Ala-Asp(OMe)-CH2F): the “effect on caspase activation and PARP cleavage by DAS-IAP” value in assay [1] (K562, after DAS-IAP pulse and drug removal, 24 h) is “abrogated”.

B1: FITC-labeled Smac peptide (FITC-Smac, AVPIAQK(5-FAM)-NH2) (peptide)
peptide: AVPIAQK(5FAM)-NH2
modifications: N-terminus assumed
SMILES: CC[C@H](C)[C@H](NC(=O)[C@@H]1CCCN1C(=O)[C@@H](NC(=O)[C@H](C)N)C(C)C)C(=O)N[C@@H](C)C(=O)N[C@@H](CCC(N)=O)C(=O)N[C@@H](CCCCNC(=O)c1ccc2c(c1)C(=O)OC21c2ccc(O)cc2Oc2cc(O)ccc21)C(N)=O
notes: N-terminal stretch of mature Smac (DIABLO); Fluorescent probe of the TR-FRET assay; source: synthetic peptide (synthesized in Scrum, Tokyo)
Take B1: the binding result in assay [5], in assay [6] and in [7] was “binds” in each case.

What is called IC50 is the concentration at which inhibition is half-maximal. Lower therefore signals higher potency.

(Values after paper PMC6131351, “Pharmacological difference between degrader and inhibitor against oncogenic BCR-ABL kinase” (Scientific Reports, 2018).)
